Source: patent US20020119917A1, “ANTI-INFLAMMATORY PEPTIDES DERIVED FROM C-REACTIVE PROTEIN” (priority 1996, published 2002)
Like-named read-outs stand apart in the source and are kept apart here. Starred links: 1 amine or outer side, 2 acyl side, 3 side chain; linkers in the order of their positions; H or OH if unused. Non-standard residues stand in square brackets, D forms with d. Residues, ends and D or L forms follow the SMILES beside them. No end group written: not given here. *: point of attachment. Fmoc = O=C(OCC1c2ccccc2-c2ccccc21)*; NH(1-naphthyl) = c1ccc2c(N*)cccc2c1; Cbz = O=C(OCc1ccccc1)*; CO = O=C([*:1])[*:2]

What was measured:
[1] = target: T1, human leukocyte elastase (hLE) (Homo sapiens, UniProt P08246); experiment: In-vitro inhibition of hLE (cleavage of MeOSuc-AAPV-NA); type: biochemical
T1 construct: Neutrophils (1.4 billion) were isolated from whole blood obtained from a single healthy laboratory donor; from tissue; host or cells: neutrophils from whole blood of a single healthy donor
T1 sequence (P08246 30-247 limits assumed): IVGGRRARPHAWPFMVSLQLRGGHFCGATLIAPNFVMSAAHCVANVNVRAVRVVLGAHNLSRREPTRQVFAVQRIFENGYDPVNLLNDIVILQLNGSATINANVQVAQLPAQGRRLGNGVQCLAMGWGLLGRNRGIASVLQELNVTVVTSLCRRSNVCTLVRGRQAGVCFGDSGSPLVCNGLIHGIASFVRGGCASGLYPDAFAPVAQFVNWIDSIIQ
Protocol: (§1) The enzymatic activity was assayed with MeOSuc-AAPV-NA for hLE determination and Suc-AAPF-NA for hCG determination (both in 100 mM Hepes buffer, pH 7.4, containing 0.05% of the […] detergent Brij-35). The activities of the individual enzymatic fractions were 100% free from cross-contamination. […] The fractions containing hLE and hCG were dialyzed each against 0.1% pyridinium acetate, pH 5.3, divided into 20 aliquots, lyophilized, and stored at −20° C. until use.
Peptides were dissolved in 100 mM Hepes buffer pH 7.4 containing 0.1% Brij-35 with 10% DMSO to yield 600 μM solutions, which were used to make further dilutions with the same buffer, and 80 μL aliquots were added in duplicates to 96-well plates. The substrate, 600 or 900 μM MeOSuc-AAPV-NA in the same buffer with 5% DMSO, was added to each well in addition to the blank wells, and the plate was placed in the plate reader equilibrated to 37° C. (Dynateck MR-6000). Lyophilized aliquots of hLE were dissolved in 1600 μL of 100 mM Hepes buffer without DMSO, and 80 μL of the enzyme solution was added to the peptides and substrate to initiate the reaction. […] The final volume was 240 μL containing: 5% DMSO, 1-200 μM of peptide, 200 μM substrate, and 0.75 μg (about 25 picomol) enzyme.
For hLE, V is determined by fitting a linear equation to the first 6 time-points (10 min) of the kinetics data using the least squares method. […] From calculating the error in the slope of the equation, the relative error for Ki was deduced:
Ki={slope*(1+[S]/Km)}^−1 because Ki=[I]*{(1+[S]/Km)*(Vo/Vi−1)}^−1.
The hLE inhibitory capability of CRP-derived peptides was evaluated by inhibiting the enzymatic cleavage of MeOSuc-AAPV-NA as described in Materials and Methods (section v).

hLE [2] = target: T2, hLE (Homo sapiens, UniProt P08246); experiment: Degradation profiles of peptides by RP-HPLC after incubation with hLE; type: in vitro ADME; details: incubated with hLE in PBS, 37° C., time-scale hours
T2 construct: Neutrophils (1.4 billion) were isolated from whole blood obtained from a single healthy laboratory donor; from tissue; host or cells: neutrophils from whole blood of a single healthy donor
T2 sequence (P08246 30-247 limits assumed): T1 sequence (P08246 30-247 limits assumed)
Protocol: Several active peptide inhibitors were dissolved in calcium- and magnesium-free phosphate-buffered saline (PBS), 125 μg/250 μL, mixed with 0.25 aliquots of hLE or hCG in 250 μL PBS and incubated at 37° C. Periodically (1,3,8, and 24 hour), 100 μL samples were removed from the reaction vessel. The samples were diluted with 150 μL of 0.1% TFA, frozen with liquid nitrogen, and stored at −20° C. prior to HPLC analysis.
More insight into the mechanism of inhibition is provided by HPLC time-course elution profiles of peptide 1, incubated with hLE in PBS (FIG. 2). […] The other bonds in peptide 1 are cleaved only after several days of incubation with the enzyme.

[3] = target: T3, human leukocyte cathepsin G (hCG) (Homo sapiens, UniProt P08311); experiment: In-vitro inhibition of hCG (conversion of Suc-AAPF-NA); type: biochemical
T3 construct: Neutrophils (1.4 billion) were isolated from whole blood obtained from a single healthy laboratory donor; from tissue; host or cells: neutrophils from whole blood of a single healthy donor
T3 sequence (P08311 21-244 limits assumed): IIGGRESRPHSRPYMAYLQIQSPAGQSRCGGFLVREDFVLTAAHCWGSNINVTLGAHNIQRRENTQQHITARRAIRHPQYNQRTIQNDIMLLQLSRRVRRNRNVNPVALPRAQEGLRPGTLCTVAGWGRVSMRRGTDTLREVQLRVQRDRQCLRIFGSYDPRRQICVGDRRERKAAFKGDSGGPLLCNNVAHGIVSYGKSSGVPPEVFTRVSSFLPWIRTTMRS
Protocol: as §1
Similar conditions to hLE inhibition experiments ere used except the substrate: 80 μL of 1.8 mM Suc-AAPF-NA. The enzyme was issolved in 800 μL buffer, and the reaction was monitored every 6 min for 1 hour. The final volume was 240 μL containing: 5% DMSO, 1-500 μM peptide, 600 μM substrate, and 1.2 μg enzyme (about 40 picomol).
For hCG, V is determined by fitting a quadratic equation to the total kinetic data (60 min), using the least squares method and calculating V at t=0.
The inhibitory capability of several CRP-derived peptides was evaluated by inhibiting the enzymatic conversion of Suc-AAPF-NA (as described in Materials and Methods (vi) above).

[4] = target: specific receptors on monocytes; details: in vitro; cited from earlier work
hLE [5] = target: T4, hLE (Homo sapiens, UniProt P08246); details: CRP as a whole protein; cited from earlier work
T4 sequence (P08246 30-267): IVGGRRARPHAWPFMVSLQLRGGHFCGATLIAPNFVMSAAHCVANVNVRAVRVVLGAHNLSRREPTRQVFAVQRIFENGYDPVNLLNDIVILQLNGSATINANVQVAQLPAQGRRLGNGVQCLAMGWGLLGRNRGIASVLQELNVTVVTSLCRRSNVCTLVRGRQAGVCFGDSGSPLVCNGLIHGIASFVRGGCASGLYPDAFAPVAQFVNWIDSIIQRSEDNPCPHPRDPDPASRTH

[6] = test system: specific receptors on human neutrophils; details: in vitro; cited from earlier work
[7] = substrate MeOSuc-AAPV-NA, 100 mM Hepes pH 7.4, 37° C., read-out: hLE Ki
[8] = substrate Suc-AAPF-NA, 600 μM, read-out: hCG Ki

Row | Compound | Ki [1] [µM] | Ki [3] [µM] | other results
1 | CC[C@H](C)[C@H](NC(=O)[C@@H](Cc1c[nH]cn1)NC(=O)[C@@H](NC(=O)[C@@H]1CCCN1C(=O)[C@H](C)NC(=O)[C@@H](NC(=O)[C@@H](NC(=O)[C@@H](N)C(C)C)[C@@H](C)O)C(C)C)C(C)C)C(=O)O [Peptide 6, Val89-Thr-Val-Ala-Pro-Val-(D)His-Ile96] (H-VTVAPV[dH]I-OH; N-terminus and C-terminus assumed) | 450 ± 45 | – | cleavage by hLE (HPLC time-course elution profile) (hLE [2]): No observable cleavage products
2 | CC[C@H](C)[C@H](NC(=O)[C@H](Cc1c[nH]cn1)NC(=O)[C@H](NC(=O)[C@@H]1CCCN1C(=O)[C@H](C)NC(=O)[C@@H](NC(=O)[C@@H](NC(=O)[C@@H](N)C(C)C)[C@@H](C)O)C(C)C)C(C)C)C(=O)O [Peptide 7, Val89-Thr-Val-Ala-Pro-(D)Val-His-Ile9] (H-VTVAP[dV]HI-OH; N-terminus and C-terminus assumed) | 330 ± 130 | – | cleavage by hLE (HPLC time-course elution profile) (hLE [2]): No observable cleavage products
3 | CC[C@H](C)[C@H](NC(=O)[C@@H](Cc1c[nH]cn1)NC(=O)[C@H](NC(=O)[C@@H]1CCCN1C(=O)[C@H](C)NC(=O)[C@@H](NC(=O)[C@@H](NC(=O)[C@@H](N)C(C)C)[C@@H](C)O)C(C)C)C(C)C)C(=O)O [Peptide 8, Val89-Thr-Val-Ala-Pro-(D)Val-(D)His-Ile96] (H-VTVAP[dV][dH]I-OH; N-terminus and C-terminus assumed) | 490 ± 50 | – | cleavage by hLE (HPLC time-course elution profile) (hLE [2]): No observable cleavage products
4 | CC[C@H](C)[C@H](NC(=O)[C@H](Cc1c[nH]cn1)NC(=O)[C@@H](NC(=O)[C@@H]1CCCN1C(=O)[C@H](C)NC(=O)[C@@H](NC(=O)[C@@H](NC(=O)[C@@H](NC(=O)Nc1cccc2ccccc12)C(C)C)[C@@H](C)O)C(C)C)C(C)C)C(=O)O [Peptide 18, Naphtyl-NH-CO-Val89-Thr-Val-Ala-Pro-Val-His-Ile96] ({NH(1-naphthyl)-CO}-VTVAPVHI-OH) | 240 ± 35 | 300 ± 40 | –
5 | CC[C@H](C)[C@H](NC(=O)[C@H](Cc1c[nH]cn1)NC(=O)[C@@H](NC(=O)[C@@H]1CCCN1C(=O)[C@H](C)NC(=O)[C@@H](NC(=O)[C@@H](NC(=O)[C@@H](NC(=O)[C@H](Cc1ccccc1)NC(=O)OCc1ccccc1)C(C)C)[C@@H](C)O)C(C)C)C(C)C)C(=O)O [Peptide 21, CBz-Phe-Val89-Thr-Val-Ala-Pro-Val-His-Ile96] (Cbz-FVTVAPVHI-OH) | 380 ± 115 | 430 ± 60 | –
6 | CC[C@H](C)[C@H](NC(=O)[C@H](Cc1c[nH]cn1)NC(=O)[C@@H](NC(=O)[C@@H]1CCCN1C(=O)[C@H](C)NC(=O)[C@@H](NC(=O)[C@@H](NC(=O)[C@@H](NC(=O)OCC1c2ccccc2-c2ccccc21)C(C)C)[C@@H](C)O)C(C)C)C(C)C)C(=O)O [Peptide 23, Fmoc-Val89-Thr-Val-Ala-Pro-Val-His-Ile96] (Fmoc-VTVAPVHI-OH) | 1000 ± 100 | 280 ± 30 | –
7 | CRP: plasma protein, major acute phase reactant; five identical sub-units of 206 amino acids forming a cyclic pentamer | – | – | Kd [4]: ~0.1 µM; inhibitory effect on hLE (hLE [5]): no inhibitory effect; Kd [6]: ~0.05 µM
8 | DIGYSFTVGGSEILFEVPEVTVAPVHICT [Peptide 3c] | 4 | 22 ± 3 | –
9 | GSEILFEVPEVTVAPVHI [Peptide 2, Gly79-Ser-Glu-Ile-Leu-Phe-Glu-Val-Pro-Glu-Val-Thr-Val-Ala-Pro-Val-His-Ile96] | 50 ± 5 | 1200 ± 200 | –
10 | H-VTVAPVHI-OH [Peptide 1, Val89-Thr-Val-Ala-Pro-Val-His-Ile96] | 120 ± 15 | 1400 ± 200 | cleavage by hLE (HPLC time-course elution profile) (hLE [2]): cleaved as predicted exclusively at the Val-His bond; hCG inhibitory capability (in words) [3]: slightly inhibitory
11 | SFTVGGSEILFEVPEVTVAPVHI [Peptide 3] | 27 ± 3 | 500 ± 100 | –
12 | SFTVGGSEILFEVPEVTVAPVHICT [Peptide 3a] | 20 ± 3 | 180 ± 30 | –
13 | SFTVGGSEILFEVPEVTVAPVHICTSWESA [Peptide 3b] | 22 ± 4 | 200 ± 30 | –
14 | VTVAPFHIP-NH2 [Peptide 13, Val89-Thr-Val-Ala-Pro-Phe-His-Ile96-Pro-NH2] | – | – | Ki [1, 7]: 180 ± 30 µM; Ki [3, 8]: 900 ± 200 µM
15 | VTVAPVFI [Peptide 10, Val89-Thr-Val-Ala-Pro-Val-Phe-Ile96] | – | – | Ki [1, 7]: 110 ± 25 µM; Ki [3, 8]: 1 ± 0.2 µM
